According to patent US20250145642A1, “BICYCLIC HETEROARENES AND METHODS OF THEIR USE” (Kineta, Inc., priority 2021, published 2025):
Counter-ions that a name gives are not always drawn.

biological target: full-length human PIKFYVE (N-terminal GST-fusion) (Homo sapiens (Human), UniProt Q9Y2I7, L932S/Q1183K/Q995L/S1033A/S696N/T998S); test: PIKfyve biochemical assay (ADP-Glo Kinase assay, Carna Biosciences); settings: ADP-Glo, full-length human GST-PIKFYVE, 10 μM to 3 nM; read-out: hPIKfyve IC50
Outline: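 Baculovirus-expressed, glutathione-purified GST-tagged full-length human PIKFYVE (S696N/L932S/Q995L/T998S/S1033A/Q1183K) reacted with substrate and ATP in 50 mM MOPS, 1 mM DTT, pH 7.2, 1 h at room temperature. ADP formed read by ADP-Glo luminescence.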

Sequence of full-length human PIKFYVE (N-terminal GST-fusion) (Q9Y2I7 whole entry S696N/L932S/Q995L/T998S/S1033A/Q1183K, the tested form may be a part): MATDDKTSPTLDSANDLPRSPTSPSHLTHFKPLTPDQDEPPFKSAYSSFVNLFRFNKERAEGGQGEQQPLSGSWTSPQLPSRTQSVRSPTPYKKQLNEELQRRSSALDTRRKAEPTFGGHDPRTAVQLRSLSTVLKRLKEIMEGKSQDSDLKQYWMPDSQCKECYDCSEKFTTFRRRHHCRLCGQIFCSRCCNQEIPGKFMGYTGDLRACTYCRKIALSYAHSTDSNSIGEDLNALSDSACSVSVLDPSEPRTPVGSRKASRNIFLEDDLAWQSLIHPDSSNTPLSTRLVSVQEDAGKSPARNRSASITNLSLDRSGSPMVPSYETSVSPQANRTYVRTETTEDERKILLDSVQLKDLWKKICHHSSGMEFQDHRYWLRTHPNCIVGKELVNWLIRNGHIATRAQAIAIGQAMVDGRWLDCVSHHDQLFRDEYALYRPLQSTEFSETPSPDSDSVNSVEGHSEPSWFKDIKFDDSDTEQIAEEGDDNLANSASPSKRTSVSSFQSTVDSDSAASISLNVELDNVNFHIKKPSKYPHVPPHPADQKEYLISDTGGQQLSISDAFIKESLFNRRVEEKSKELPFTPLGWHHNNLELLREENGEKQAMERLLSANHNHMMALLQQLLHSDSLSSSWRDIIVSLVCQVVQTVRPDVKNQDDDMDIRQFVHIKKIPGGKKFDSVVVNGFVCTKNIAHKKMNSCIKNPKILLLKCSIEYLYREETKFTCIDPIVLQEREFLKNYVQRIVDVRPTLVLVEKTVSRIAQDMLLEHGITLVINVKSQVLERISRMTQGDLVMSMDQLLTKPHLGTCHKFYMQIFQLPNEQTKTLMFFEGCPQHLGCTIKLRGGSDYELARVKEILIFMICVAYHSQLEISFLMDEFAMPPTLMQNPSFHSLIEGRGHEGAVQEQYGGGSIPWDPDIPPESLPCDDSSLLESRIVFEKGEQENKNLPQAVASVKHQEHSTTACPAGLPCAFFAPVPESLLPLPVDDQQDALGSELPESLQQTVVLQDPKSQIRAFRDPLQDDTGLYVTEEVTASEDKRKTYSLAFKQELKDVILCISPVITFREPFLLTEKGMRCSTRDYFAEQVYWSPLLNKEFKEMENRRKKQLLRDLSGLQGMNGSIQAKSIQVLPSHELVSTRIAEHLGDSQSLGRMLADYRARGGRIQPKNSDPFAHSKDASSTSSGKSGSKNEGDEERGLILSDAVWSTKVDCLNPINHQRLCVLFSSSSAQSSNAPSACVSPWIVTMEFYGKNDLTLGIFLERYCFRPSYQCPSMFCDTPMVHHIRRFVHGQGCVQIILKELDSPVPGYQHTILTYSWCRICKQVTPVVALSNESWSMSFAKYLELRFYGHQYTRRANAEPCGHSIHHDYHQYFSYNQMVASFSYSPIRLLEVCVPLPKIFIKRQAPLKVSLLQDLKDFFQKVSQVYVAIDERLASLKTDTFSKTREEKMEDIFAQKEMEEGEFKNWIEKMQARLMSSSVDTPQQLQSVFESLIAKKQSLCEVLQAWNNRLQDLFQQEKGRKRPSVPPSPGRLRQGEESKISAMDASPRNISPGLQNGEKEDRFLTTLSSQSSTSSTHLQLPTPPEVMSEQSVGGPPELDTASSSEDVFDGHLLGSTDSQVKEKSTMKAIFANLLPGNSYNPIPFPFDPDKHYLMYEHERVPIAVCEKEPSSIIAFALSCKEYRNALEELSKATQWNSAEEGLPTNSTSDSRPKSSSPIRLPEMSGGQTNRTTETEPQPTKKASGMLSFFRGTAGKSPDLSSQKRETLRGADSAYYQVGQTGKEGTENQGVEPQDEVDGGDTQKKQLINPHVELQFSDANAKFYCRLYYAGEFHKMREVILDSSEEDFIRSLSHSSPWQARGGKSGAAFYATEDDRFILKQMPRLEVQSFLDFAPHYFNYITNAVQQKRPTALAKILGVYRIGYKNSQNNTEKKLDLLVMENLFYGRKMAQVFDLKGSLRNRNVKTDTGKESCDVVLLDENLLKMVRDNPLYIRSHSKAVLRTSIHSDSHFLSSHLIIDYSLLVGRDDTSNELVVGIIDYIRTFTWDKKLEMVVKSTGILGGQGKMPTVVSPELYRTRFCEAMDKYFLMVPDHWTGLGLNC

| SMILES | IC50 |
| --- | --- |
| OCCn1cc(-c2cccc(-n3cccn3)c2)c2nc(N3CCOCC3)nc(-c3ccncc3)c21 [Compound 149, 2-(7-(3-(1H-pyrazol-1-yl)phenyl)-2-morpholino-4-(pyridin-4-yl)-6H-pyrrolo[3,2-d]pyrimidin-5-yl)ethan-1-ol] | 100 to 1000 nM |
| c1ccc(N2CCc3c(C4CCOC4)nc(N4CCOCC4)nc32)cc1 (stereo not shown) [Compound 87, 4-(7-phenyl-4-(tetrahydrofuran-3-yl)-6,7-dihydro-5H-pyrrolo[2,3-d]pyrimidin-2-yl)morpholine] | 10 to 100 nM |
| CC(=O)N1CCC(c2nc(N3CCOCC3)nc3c2CCN3c2ccccc2)C1 (stereo not shown) [Compound 119, 1-(3-(2-morpholino-7-phenyl-6,7-dihydro-5H-pyrrolo[2,3-d]pyrimidin-4-yl)pyrrolidin-1-yl)ethanone] | 10 to 100 nM |
| c1ccc(-c2cncc(N3CCc4c(Oc5cccnc5)nc(N5CCOCC5)nc43)c2)cc1 [Compound 67, 4-(7-(5-phenylpyridin-3-yl)-4-(pyridin-3-yloxy)-6,7-dihydro-5H-pyrrolo[2,3-d]pyrimidin-2-yl)morpholine] | 10 to 100 nM |
| c1ccc(-c2ccn(-c3nc(N4CCOCC4)nc4c3CCN4c3ccncc3)n2)cc1 [Compound 84, 4-(4-(3-phenyl-1H-pyrazol-1-yl)-7-(pyridin-4-yl)-6,7-dihydro-6H-pyrrolo[2,3-d]pyrimidin-2-yl)morpholine] | 10 to 100 nM |
| c1ccc(-c2nccc(-c3nc(N4CCOCC4)nc4c3CCN4c3cccnc3)n2)cc1 [Compound 124, 4-(4-(2-phenylpyrimidin-4-yl)-7-(pyridin-3-yl)-6,7-dihydro-5H-pyrrolo[2,3-d]pyrimidin-2-yl)morpholine hydrochloride] | 10 to 100 nM |
| CN1CCC(c2nc(N3CCOCC3)nc3c2ncn3-c2ccccc2)C1 (stereo not shown) [Compound 126, 4-(6-(1-methylpyrrolidin-3-yl)-9-phenyl-9H-purin-2-yl)morpholine] | 1000 to 10000 nM |
| CN1CCC(N2CCc3c(OCc4cccnc4)nc(N4CCOCC4)nc32)CC1 [Compound 42, 4-(7-(1-methylpiperidin-4-yl)-4-(pyridin-3-ylmethoxy)-6,7-dihydro-5H-pyrrolo[2,3-d]pyrimidin-2-yl)morpholine] | > 10000 nM |
| c1ccc(-c2nccc(N3CCc4c(Oc5cccnc5)nc(N5CCOCC5)nc43)n2)cc1 [Compound 74, 4-(7-(2-phenylpyrimidin-4-yl)-4-(pyridin-3-yloxy)-6,7-dihydro-5H-pyrrolo[2,3-d]pyrimidin-2-yl)morpholine] | 1000 to 10000 nM |
| c1ccc(N2CCc3c(C4CNC4)nc(N4CCOCC4)nc32)cc1 [Compound 115, 4-(4-(azetidin-3-yl)-7-phenyl-6,7-dihydro-5H-pyrrolo[2,3-d]pyrimidin-2-yl)morpholine] | 100 to 1000 nM |
| CN1CCC(COc2nc(N3CCOCC3)nc3c2CCN3c2cccnc2)C1 (stereo not shown) [Compound 35, 4-(4-((1-methylpyrrolidin-3-yl)methoxy)-7-(pyridin-3-yl)-6,7-dihydro-6H-pyrrolo[2,3-d]pyrimidin-2-yl)morpholine] | 100 to 1000 nM |
| CN1CCOC(COc2nc(N3CCOCC3)nc3c2CCN3c2cccnc2)C1 (stereo not shown) [Compound 12, 4-methyl-2-((2-morpholino-7-(pyridin-3-yl)-6,7-dihydro-5H-pyrrolo[2,3-d]pyrimidin-4-yloxy)methyl)morpholine] | 100 to 1000 nM |
| c1ccc(N2CCc3c(Oc4ccccn4)nc(N4CCOCC4)nc32)cc1 [Compound 49, 4-(7-phenyl-4-(pyridin-2-yloxy)-6,7-dihydro-5H-pyrrolo[2,3-d]pyrimidin-2-yl)morpholine] | 10 to 100 nM |
| c1ccc(N2CCc3c(-c4ccncc4)nc(N4CCOCC4)nc32)cc1 [Compound 92, 4-(7-phenyl-4-(pyridin-4-yl)-6,7-dihydro-5H-pyrrolo[2,3-d]pyrimidin-2-yl)morpholine] | 10 to 100 nM |
| Cc1cccc(N2C(=O)Cc3c(OCc4cccnc4)nc(N4CCOCC4)nc32)c1 [Compound 129, 2-morpholino-4-(pyridin-3-ylmethoxy)-7-m-tolyl-5H-pyrrolo[2,3-d]pyrimidin-6(7H)-one] | 100 to 1000 nM |
| c1cc(-c2nc(N3CCOCC3)nc3c(-c4ccncn4)c[nH]c23)ccn1 [Compound 137, 4-(4-(pyridin-4-yl)-7-(pyrimidin-4-yl)-6H-pyrrolo[3,2-d]pyrimidin-2-yl)morpholine] | 10 to 100 nM |
| c1ccc(N2CCc3c(-c4ccnnc4)nc(N4CCOCC4)nc32)cc1 [Compound 99, 4-(7-phenyl-4-(pyridazin-4-yl)-6,7-dihydro-5H-pyrrolo[2,3-d]pyrimidin-2-yl)morpholine] | 10 to 100 nM |
| CC(C)(C)OC(=O)N1CCC(c2nc(N3CCOCC3)nc3c2CCN3c2ccccc2)CC1 [Compound 110, tert-butyl 4-(2-morpholino-7-phenyl-6,7-dihydro-5H-pyrrolo[2,3-d]pyrimidin-4-yl)piperidine-1-carboxylate] | 10 to 100 nM |
| CN1CCC(c2nc(N3CCOCC3)nc3c2CCN3c2cccnc2)CC1 [Compound 109, 4-(4-(1-methylpiperidin-4-yl)-7-(pyridin-3-yl)-6,7-dihydro-5H-pyrrolo[2,3-d]pyrimidin-2-yl)morpholine] | 1000 to 10000 nM |

| SMILES | IC50 |
| --- | --- |
| CC(=O)N1CCC(c2nc(N3CCOCC3)nc3c2CCN3c2ccccc2)CC1 [Compound 120, 1-(4-(2-morpholino-7-phenyl-6,7-dihydro-5H-pyrrolo[2,3-d]pyrimidin-4-yl)piperidin-1-yl)ethan-1-one] | 10 to 100 nM |
| COc1cccc(C2CC2c2nc(N3CCOCC3)nc3c2CCN3c2cccnc2)c1 (stereo not shown) [Compound 122, 4-(4-(2-(3-methoxyphenyl)cyclopropyl)-7-(pyridin-3-yl)-6,7-dihydro-5H-pyrrolo[2,3-d]pyrimidin-2-yl)morpholine] | 100 to 1000 nM |
| c1cncc(N2CCc3c(OCC4CCOCC4)nc(N4CCOCC4)nc32)c1 [Compound 151, 4-{4-[(oxan-4-yl)methoxy]-7-(pyridin-3-yl)-5H,6H,7H-pyrrolo[2,3-d]pyrimidin-2-yl}morpholine] | 100 to 1000 nM |
| O=C1COc2c(OCc3cccnc3)nc(N3CCOCC3)nc2N1c1ccccc1 [Compound 130, 2-morpholino-8-phenyl-4-(pyridin-3-ylmethoxy)-6H-pyrimido[5,4-b][1,4]oxazin-7(8H)-one] | 100 to 1000 nM |
| CCN1CCCC(COc2nc(N3CCOCC3)nc3c2CCN3c2cccnc2)C1 (stereo not shown) [Compound 10, 4-(4-((1-ethylpiperidin-3-yl)methoxy)-7-(pyridin-3-yl)-6,7-dihydro-5H-pyrrolo[2,3-d]pyrimidin-2-yl)morpholine] | 100 to 1000 nM |
| c1ccc(N2CCc3c(COc4cccnc4)nc(N4CCOCC4)nc32)cc1 [Compound 59, 4-(7-phenyl-4-((pyridin-3-yloxy)methyl)-6,7-dihydro-6H-pyrrolo[2,3-d]pyrimidin-2-yl)morpholine] | 100 to 1000 nM |
| Fc1cccc(N2CCc3c(OCc4cccnn4)nc(N4CCOCC4)nc32)c1 [Compound 8, 4-(7-(3-fluorophenyl)-4-(pyridazin-3-ylmethoxy)-6,7-dihydro-5H-pyrrolo[2,3-d]pyrimidin-2-yl)morpholine] | 100 to 1000 nM |
| CN1CCCC(CCOc2nc(N3CCOCC3)nc3c2CCN3c2cccnc2)C1 (stereo not shown) [Compound 11, 4-(4-(2-(1-methylpiperidin-3-yl)ethoxy)-7-(pyridin-3-yl)-6,7-dihydro-5H-pyrrolo[2,3-d]pyrimidin-2-yl)morpholine] | 10 to 100 nM |
| CN1CCN(c2nc(N3CCOCC3)nc3c2CCN3c2cccnc2)CC1 [Compound 81, 4-(4-(4-methylpiperazin-1-yl)-7-(pyridin-3-yl)-6,7-dihydro-5H-pyrrolo[2,3-d]pyrimidin-2-yl)morpholine] | 1000 to 10000 nM |
| c1ccc(N2CCc3c(C4CCNC4)nc(N4CCOCC4)nc32)cc1 (stereo not shown) [Compound 116, 4-(7-phenyl-4-(pyrrolidin-3-yl)-6,7-dihydro-5H-pyrrolo[2,3-d]pyrimidin-2-yl)morpholine] | 10 to 100 nM |
| CN1CCn2ncc(-c3c[nH]c4c(-c5ccncc5)nc(N5CCOCC5)nc34)c2C1 [Compound 146, 4-(7-(5-methyl-4,5,6,7-tetrahydropyrazolo[1,5-a]pyrazin-3-yl)-4-(pyridin-4-yl)-5H-pyrrolo[3,2-d]pyrimidin-2-yl)morpholine] | 100 to 1000 nM |
| c1ccc(N2CCc3c(NC4COC4)nc(N4CCOCC4)nc32)cc1 [Compound 76, 2-morpholino-N-(oxetan-3-yl)-7-phenyl-6,7-dihydro-5H-pyrrolo[2,3-d]pyrimidin-4-amine] | > 10000 nM |
| c1ccc(N2CCc3c(OCc4cccnn4)nc(N4CCOCC4)nc32)cc1 [Compound 27, 4-(7-phenyl-4-(pyridazin-3-ylmethoxy)-6,7-dihydro-5H-pyrrolo[2,3-d]pyrimidin-2-yl)morpholine] | 10 to 100 nM |
| c1ccc(N2CCc3c(OCc4cccnc4)nc(N4CCOCC4)nc32)cc1 [Compound 25, 4-(7-phenyl-4-(pyridin-3-ylmethoxy)-6,7-dihydro-5H-pyrrolo[2,3-d]pyrimidin-2-yl)morpholine] | 10 to 100 nM |
| c1ccc(-c2nccc(-c3nc(N4CCOCC4)nc4c3CCN4c3ccncc3)n2)cc1 [Compound 125, 4-(4-(2-phenylpyrimidin-4-yl)-7-(pyridin-4-yl)-6,7-dihydro-5H-pyrrolo[2,3-d]pyrimidin-2-yl)morpholine] | 10 to 100 nM |
| c1ccc(N2CCc3c(Oc4cccnc4)nc(N4CCOCC4)nc32)cc1 [Compound 53, 4-(7-phenyl-4-(pyridin-3-yloxy)-6,7-dihydro-5H-pyrrolo[2,3-d]pyrimidin-2-yl)morpholine] | 10 to 100 nM |
| O=C(c1ccccc1)N1CCc2c(Oc3cccnc3)nc(N3CCOCC3)nc21 [Compound 72, (2-morpholino-4-(pyridin-3-yloxy)-6H-pyrrolo[2,3-d]pyrimidin-7(6H)-yl)(phenyl)methanone] | 1000 to 10000 nM |
| N#Cc1nc(N2CCOCC2)nc2c1CCN2c1ccccc1 [Compound 47, 2-morpholino-7-phenyl-6,7-dihydro-5H-pyrrolo[2,3-d]pyrimidine-4-carbonitrile] | 100 to 1000 nM |
